Columns and labels:
[1] = test system: S. aureus bioluminescent strain Xen36; test: Mouse model of prosthetic joint infection (PJI): in vivo bioluminescence imaging and CFU; parameters: species or system mice; details: intravenous prophylaxis 110 mg/kg at −1 and 16 hours
Text: A previously established mouse model of a prosthetic joint infection (PJI) (Pribaz et al., 2012) was used to evaluate the efficiencies of the composite coatings in providing sustained in situ release and in vivo antimicrobial activity (FIG. 5A, FIG. 5B, FIG. 5C, FIG. 5D, FIG. 5E, FIG. 5F, FIG. 5G, FIG. 5H, FIG. 5I, FIG. 5J, FIG. 5K, and FIG. 5L). A medical-grade titanium K-wire (0.5 mm in diameter, 9 mm in length) coated with PLGA/PCL fiber coating ± antibiotics was surgically placed into the right distal femur of mice. Briefly, a medial parapatellar arthrotomy on the right knee was performed with lateral displacement of the quadriceps-patellar complex. […]
Noninvasive and longitudinal measurements of the bacterial burden were performed using in vivo bioluminescence imaging of the bioluminescent signals from live and actively metabolizing Xen36 bacteria at the site of infection in the post-operative knee joints of anesthetized mice over a 2-week course of infection using the IVIS Lumina III in vivo imaging system (PerkinElmer) on days 0, 1, 3, 5, 7, and 14. Data are presented on a color scale overlaid on a grayscale photograph of mice and quantified as maximum radiance (photons/second/cm^2/steradian) within a circular region of interest (1×10^3 pixels) using Living Image software. […]

[2] = In vitro release of antibiotics from PLGA/PCL composite coatings on titanium K-wires (HPLC); type: physicochemical; details: stored coated pins, two-week in vitro release
Method: The release rate of the polymer composite film was measured by HPLC. Drug release studies were conducted using coated pins created with the same loading parameters as those used for later in vivo testing (10% (w/w) drug combinations) electrospun for 60 seconds at injection rates of 0.5 mL/h from each needle. Release rate of antibiotics from the composite polymer coating was characterized by placing coated pins in 200 μL pH 7.4 PBS buffer and incubating at 37° C. in an aluminum film-covered incubator to prevent possible light-induced drug degradation. Release media was changed at fixed time points over a period of two weeks and stored in a −20° C. freezer until analysis. Drug concentrations in release media for each day were determined via reverse-phase HPLC using a C-18 column in an Alliance HPLC system and Waters 2996 PDA detector. The mobile phase was a mixture of acetonitrile and water both mixed with 0.1% TFA acid, which was run at a gradient from (15%/85%) to (40%/60%) for a total runtime of 15 minutes per sample for the elution of Van/Rif and Lin/Rif drug loading groups. Elution of the Dap/Rif loading group was conducted using a mobile phase of (49%/51%) of acetonitrile and water both mixed with 0.1% TFA acid for a total run time of 11 minutes per sample. Concentrations of the drugs were quantified using wavelengths of 343 nm for Rif, 254 nm for Lin, 280 nm for Van and 223 nm for Dap using prepared standard curves for all three drugs. […] Quantification was performed through the derivatization of Gentamicin with ninhydrin at 95° C. for 15 minutes and detection with a Biotek Synergy2 plate reader.
(§1) Long-term efficacy of the antimicrobial activity was tested by storing electrospun pins at room temperature for 6 weeks, −20° C. for 6 weeks, and −80° C. for 8 months. Coated pins were protected from light during storage. These pins were then used in the same zone of inhibition assay as described hereinabove.
Drug release studies were conducted using coated pins created with the same loading parameters as detailed above. Release kinetics of antibiotics from the composite coating were characterized by placing coated pins in 200 μL of phosphate buffer saline (PBS, pH 7.4) at 37° C. Release media was changed daily over a period of two weeks and stored at −20° C. until analysis. Drug concentrations in release media were measured on days 1, 2, 3, 5, 7, 10 and 14 using a Waters Alliance 2690 HPLC system (Waters Corporation, Milford, Mass.) equipped with an Accucore RP-MS C18 column (100 mm×2.1 mm; Thermo Fisher Scientific) and a Waters 2996 PDA detector. The elution was carried out with a mobile phase of water and acetonitrile both mixed with 0.1% TFA at a flow rate of 1 mL/min at ambient temperature using a linear gradient elution program of 85% water to […] in 15 minutes. Concentrations of the drugs were quantified using wavelengths for Van (280 nm), Lin (254 nm), Dap (224 nm) and Rif (263 nm).

S. aureus = test: In vitro zone of inhibition assay of coated K-wires; type: cell-based, Staphylococcus aureus; details: 6 weeks room temperature, 6 weeks −20° C., 8 months
Text: A zone of inhibition assay was used as an additional assay to evaluate the in vitro release of antibiotic(s) from the composite coating. Tryptic soy agar bacterial plates were inoculated with S. aureus bacteria cells to yield a bacterial lawn after overnight culture. After bacterial inoculation and before culturing the plates, two identical titanium K-wires loaded with either 10 w/w % Lin, 10 w/w % Van, or 10 w/w % Dap alone, or in combination with Rif were placed in two separate areas on the plate. After culturing the plates at 37° C. for 24 hours, the antimicrobial activity of the eluded antibiotic(s) into the agar was measured as a zone of inhibition (diameter [mm]) of the bacterial growth around the K-wire.
as §1, with “hereinabove. These antimicrobial results were further confirmed with a two-week in vitro release study to determine release kinetics after storage.” for “hereinabove.”
Tryptic soy agar (TSA) bacterial plates were inoculated with S. aureus to yield a bacterial lawn after overnight culture. Before culturing the plates, two titanium K-wires each loaded with the same combination of antibiotics from each set were placed in two separate areas on the plate. After culturing at 37° C. for 24 hours, the zone of inhibition (ZOI) (diameter/mm) of bacterial growth were measured.

S. aureus strain Xen36 = test: MIC of XEN36 for each antibiotic; type: cell-based, Staphylococcus aureus; details: Staphylococcus aureus, XEN36, read-out: MIC of XEN36
Method: S. aureus strain Xen36 (PerkinElmer, Waltham, Mass.) previously derived from the clinical bacteremia isolate ATCC 49525 (Wright) was used in all experiments. (Francis et al., 2000). […] (Francis et al., 2000). Xen36 was prepared for inoculation as previously described. (Niska et al., 2013; Pribaz et al. (2012)).

CN[C@H](CC(C)C)C(=O)N[C@H]1C(=O)N[C@@H](CC(N)=O)C(=O)N[C@H]2C(=O)N[C@H]3C(=O)N[C@H](C(=O)N[C@H](C(=O)O)c4cc(O)cc(O)c4-c4cc3ccc4O)[C@H](O)c3ccc(c(Cl)c3)Oc3cc2cc(c3O[C@@H]2O[C@H](CO)[C@@H](O)[C@H](O)[C@H]2O[C@H]2C[C@](C)(N)[C@H](O)[C@H](C)O2)Oc2ccc(cc2Cl)[C@H]1O [Van, vancomycin]
BLI signals [1]: decreased BLI signals | CFU from bone/joint tissue and implants [1]: the infection was not cleared as CFU were readily detected | release kinetics after storage [2]: no difference in the release kinetics | antimicrobial activity (zone of inhibition) after storage versus freshly prepared coatings (S. aureus): no significant loss of antimicrobial activity | MIC (S. aureus strain Xen36): 0.5 µg/mL

From patent US20210322622A1, “COMPOSITIONS AND METHODS FOR PREPARATION OF COMPOSITE POLYMER FILMS ON NON-CONDUCTING SUBSTRATES, INCLUDING BANDAGES, AND THEIR USE FOR TREATING WOUNDS” (The Johns Hopkins University, priority 2018, published 2021)
